Test [1] concerns the target T1, human norepinephrine transporter (Homo sapiens, UniProt P23975).
T1 construct: expressed in transfected cells; host or cells: HEK-293
Kind of test: hNET receptor binding ([125I]-RTI-55 radioligand). Particulars: membranes of HEK-293 cells transfected with human norepinephrine transporter cDNA; 50 pM [125I]-RTI-55; IC50 converted by Cheng-Prusoff; read-out: NET Ki. The essentials:
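Membranes from HEK-293 cells expressing human NET were incubated 90 min at room temperature with 50 pM [125I]-RTI-55 and test compound (10^−5M to 10^−12M) in Krebs-HEPES, pH 7.4.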

For test [2], the target named is T2, human serotonin transporter (Homo sapiens, UniProt P31645).
T2 construct: expressed in transfected cells; host or cells: HEK-293
T2 sequence (P31645 whole entry): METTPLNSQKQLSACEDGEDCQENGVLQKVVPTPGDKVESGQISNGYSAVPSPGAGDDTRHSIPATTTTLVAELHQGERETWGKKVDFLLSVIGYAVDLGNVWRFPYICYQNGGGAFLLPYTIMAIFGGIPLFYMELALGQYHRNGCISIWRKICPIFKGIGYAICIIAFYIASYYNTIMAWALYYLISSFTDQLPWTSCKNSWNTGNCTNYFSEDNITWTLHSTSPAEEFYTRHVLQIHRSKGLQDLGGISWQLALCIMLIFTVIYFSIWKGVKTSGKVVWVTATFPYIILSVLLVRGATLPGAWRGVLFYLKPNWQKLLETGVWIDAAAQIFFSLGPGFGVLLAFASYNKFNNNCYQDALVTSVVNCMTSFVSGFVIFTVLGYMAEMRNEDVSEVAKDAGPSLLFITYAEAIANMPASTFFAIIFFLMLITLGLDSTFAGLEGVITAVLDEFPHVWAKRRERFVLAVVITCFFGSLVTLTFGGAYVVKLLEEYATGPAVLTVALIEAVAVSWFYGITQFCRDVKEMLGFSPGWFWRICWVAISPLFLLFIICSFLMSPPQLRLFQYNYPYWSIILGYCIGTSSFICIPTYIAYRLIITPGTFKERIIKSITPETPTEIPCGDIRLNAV
Kind of test: hSERT receptor binding ([125I]-RTI-55 radioligand). As to conditions: membranes of HEK-293 cells transfected with human serotonin transporter cDNA; 50 pM [125I]-RTI-55; IC50 converted by Cheng-Prusoff; read-out: SERT Ki. In outline:
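Ki values derive via Cheng-Prusoff from IC50s of displacement of 50 pM [125I]-RTI-55 binding to transfected HEK-293 membranes, 90 min at room temperature in pH 7.4 Krebs-HEPES buffer. Compounds spanned 10^−12 to 10^−5 M, in duplicate; nonspecific binding was set with 10 μM citalopram.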

T1 sequence (P23975 whole entry): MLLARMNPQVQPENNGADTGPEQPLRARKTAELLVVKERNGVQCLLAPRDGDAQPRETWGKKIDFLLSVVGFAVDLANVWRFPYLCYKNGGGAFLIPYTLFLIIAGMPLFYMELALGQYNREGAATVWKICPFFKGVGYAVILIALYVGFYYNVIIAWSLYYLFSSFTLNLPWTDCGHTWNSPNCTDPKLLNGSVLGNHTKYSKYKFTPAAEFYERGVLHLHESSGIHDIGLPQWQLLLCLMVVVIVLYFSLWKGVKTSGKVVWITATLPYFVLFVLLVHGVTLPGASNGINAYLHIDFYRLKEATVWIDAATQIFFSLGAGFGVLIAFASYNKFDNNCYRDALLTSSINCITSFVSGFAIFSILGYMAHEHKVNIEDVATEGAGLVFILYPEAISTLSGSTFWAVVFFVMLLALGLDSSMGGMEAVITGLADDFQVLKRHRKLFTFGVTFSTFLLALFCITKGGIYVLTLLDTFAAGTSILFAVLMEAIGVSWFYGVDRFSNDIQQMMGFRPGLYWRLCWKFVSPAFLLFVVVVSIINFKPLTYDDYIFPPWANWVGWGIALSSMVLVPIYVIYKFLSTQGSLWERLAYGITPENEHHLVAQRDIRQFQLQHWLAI

As a reminder, the Ki is a measure of affinity in units of concentration, obtained from inhibition or displacement. In the case of `Fc1ccc(-c2ccccc2)c(CO[C@H]2CCNC2)c1` [Example D-66, (S)-3-(4-Fluoro-biphenyl-2-ylmethoxy)-pyrrolidine], the Ki in test [1] was determined as 65.9 nM; in test [2] it was 126 nM.
With `Cc1cc(C)cc(-c2ccc(F)cc2CO[C@H]2CCNC2)c1` [Example D-67, (S)-3-(4-Fluoro-3′,5′-dimethyl-biphenyl-2-ylmethoxy)-pyrrolidine], the values for the Ki in test [1] and in test [2] were 377 nM and 116 nM, respectively.
Regarding `COc1ccc(OC)c(-c2ccc(F)cc2CO[C@H]2CCNC2)c1` [Example D-68, (S)-3-(4-Fluoro-2′,5′-dimethoxy-biphenyl-2-ylmethoxy)-pyrrolidine], the Ki is 1160 nM in test [1] and 1240 nM in test [2].
Take `Cc1cccc(-c2ccc(F)cc2CO[C@H]2CCNC2)c1` [Example D-69, (S)-3-(4-Fluoro-3′-methyl-biphenyl-2-ylmethoxy)-pyrrolidine]: the values for the Ki in test [1] and in test [2] were 90.4 nM and 85.8 nM, respectively.
As for `CCOc1cccc(-c2ccc(F)cc2CO[C@H]2CCNC2)c1` [Example D-70, (S)-3-(3′-Ethoxy-4-fluoro-biphenyl-2-ylmethoxy)-pyrrolidine], the figures for the Ki in test [1] and in test [2] were 832 nM and 195 nM, respectively.
For `Fc1ccc(-c2ccc(F)c(F)c2)c(CO[C@H]2CCNC2)c1` [Example D-71, (S)-(4,3′,4′-Trifluoro-biphenyl-2-ylmethoxy)-pyrrolidine], the values for the Ki in test [1] and in test [2] were 60 nM and 108 nM, respectively.
On to `COc1ccccc1-c1ccc(F)cc1CO[C@H]1CCNC1` [Example D-72, (S)-3-(4-Fluoro-2′-methoxy-biphenyl-2-ylmethoxy)-pyrrolidine], for which the Ki amounted to 205 nM in test [1] and 356 nM in test [2].
Regarding `Fc1ccc(-c2ccc(F)c(Cl)c2)c(CO[C@H]2CCNC2)c1` [Example D-73, (S)-3-(3′-Chloro-4,4′-difluoro-biphenyl-2-ylmethoxy)-pyrrolidine], the Ki in test [1] is 146 nM; in test [2], 49.7 nM.
For `Fc1ccc(-c2ccc(F)cc2CO[C@H]2CCNC2)cc1` [Example D-74, (S)-3-(4,4′-Difluoro-biphenyl-2-ylmethoxy)-pyrrolidine], the Ki in test [1] was 43.4 nM; in test [2], 146 nM.
Take `Fc1ccc(-c2cccc(C(F)(F)F)c2)c(CO[C@H]2CCNC2)c1` [Example D-75, (S)-3-(4-Fluoro-3′-trifluoromethyl-biphenyl-2-ylmethoxy)-pyrrolidine]: the Ki in test [1] stood at 598 nM; in test [2] it was 106 nM.
The matching figures for `CCc1ccc(-c2ccc(F)cc2CO[C@H]2CCNC2)cc1` [Example D-76, (S)-3-(4′-Ethyl-4-fluoro-biphenyl-2-ylmethoxy)-pyrrolidine]: 1280 nM and 734 nM.
As to `COc1ccc(-c2ccc(F)cc2CO[C@H]2CCNC2)c(OC)c1` [Example D-77, (S)-3-(4-Fluoro-2′,4′-dimethoxy-biphenyl-2-ylmethoxy)-pyrrolidine], the Ki in test [1] was 1350 nM; in test [2], 1400 nM.
For the compound `CC(=O)c1ccc(-c2ccc(F)cc2CO[C@H]2CCNC2)cc1` [Example D-78, (S)-1-[4′-Fluoro-2′-(pyrrolidin-3-yloxymethyl)-biphenyl-4-yl]-ethanone], the Ki in test [1] was found to be 6870 nM; in test [2] it was 444 nM.
Consider `Fc1ccc(-c2ccc(C(F)(F)F)cc2)c(CO[C@H]2CCNC2)c1` [Example D-79, (S)-3-(4-Fluoro-4′-trifluoromethyl-biphenyl-2-ylmethoxy)-pyrrolidine], for which the Ki was 6780 nM in test [1] and 206 nM in test [2].
With `Fc1cccc(-c2ccc(F)cc2CO[C@H]2CCNC2)c1` [Example D-80, (S)-3-(4,3′-Difluoro-biphenyl-2-ylmethoxy)-pyrrolidine], the figures for the Ki in test [1] and in test [2] were 36 nM and 44.7 nM, respectively.
Regarding `CC(=O)c1cccc(-c2ccc(F)cc2CO[C@H]2CCNC2)c1` [Example D-81, (S)-1-[4′-Fluoro-2′-(pyrrolidin-3-yloxymethyl)-biphenyl-3-yl]-ethanone], the results for the Ki in test [1] and in test [2] were 1970 nM and 371 nM, respectively.
For the compound `Cc1cccc(-c2ccc(F)cc2CO[C@H]2CCNC2)c1C` [Example D-82, (S)-3-(4-Fluoro-2′,3′-dimethyl-biphenyl-2-ylmethoxy)-pyrrolidine], the Ki in test [1] came to 258 nM; in test [2], 77.1 nM.
`Fc1ccc(-c2ccc(Cl)c(Cl)c2)c(CO[C@H]2CCNC2)c1` [Example D-83, (S)-3-(3′,4′-Dichloro-4-fluoro-biphenyl-2-ylmethoxy)-pyrrolidine]: the Ki amounted to 109 nM in test [1] and 71.6 nM in test [2].
In the same order, the values of `COc1ccc(-c2ccc(F)cc2CO[C@H]2CCNC2)cc1OC` [Example D-84, (S)-3-(4-Fluoro-3′,4′-dimethoxy-biphenyl-2-ylmethoxy)-pyrrolidine] are 1920 nM and 70.4 nM.
The matching figures for `CCOc1ccc(-c2ccc(F)cc2CO[C@H]2CCNC2)cc1` [Example D-85, (S)-3-(4′-Ethoxy-4-fluoro-biphenyl-2-ylmethoxy)-pyrrolidine]: 706 nM and 324 nM.
As for `Fc1cc(F)cc(-c2ccc(F)cc2CO[C@H]2CCNC2)c1` [Example D-86, (S)-(4,3′,5′-Trifluoro-biphenyl-2-ylmethoxy)-pyrrolidine], the Ki in test [1] is 278 nM; in test [2] it was 76.2 nM.
Turning to `OCc1cccc(-c2ccc(F)cc2CO[C@H]2CCNC2)c1` [Example D-87, (S)-[4′-Fluoro-2′-(pyrrolidin-3-yloxymethyl)-biphenyl-3-yl]-methanol], the Ki was 3080 nM in test [1] and 124 nM in test [2].
Consider `CC(C)OC(=O)c1ccc(-c2ccc(F)cc2CO[C@H]2CCNC2)cc1` [Example D-88, (S)-4′-Fluoro-2′-(pyrrolidine-3-yloxymethyl)-biphenyl-4-carboxylic acid isopropyl ester], for which the Ki was found to be 1030 nM in test [1] and 1040 nM in test [2].
As for `Cc1ccc(C)c(-c2ccc(F)cc2CO[C@H]2CCNC2)c1` [Example D-89, (S)-3-(4-Fluoro-2′,5′-dimethyl-biphenyl-2-ylmethoxy)-pyrrolidine], the inhibitory constant (Ki) was determined as 189 nM in test [1] and 268 nM in test [2].
Take `Oc1cccc(-c2ccc(F)cc2CO[C@H]2CCNC2)c1` [Example D-90, (S)-4′-Fluoro-2′-(pyrrolidin-3-yloxymethyl)-biphenyl-3-ol]: the Ki in test [1] was determined as 68.3 nM; in test [2], 516 nM.
Turning to `Fc1ccc(-c2ccc(OC(F)(F)F)cc2)c(CO[C@H]2CCNC2)c1` [Example D-91, (S)-3-(4-Fluoro-4′-trifluoromethoxy-biphenyl-2-ylmethoxy)-pyrrolidine], the results for the inhibition constant Ki in test [1] and in test [2] were 935 nM and 16.5 nM, respectively.
In the same order, the values of `COc1c(C)cc(-c2ccc(F)cc2CO[C@H]2CCNC2)cc1C` [Example D-92, (S)-3-(4-Fluoro-4′-methoxy-3′,5′-dimethyl-biphenyl-2-ylmethoxy)-pyrrolidine] are 738 nM and 144 nM.
Consider `COc1cccc(-c2ccc(F)cc2CO[C@H]2CCNC2)c1F` [Example D-93, (S)-3-(4,2′-Difluoro-3′-methoxy-biphenyl-2-ylmethoxy)-pyrrolidine], for which the Ki in test [1] is 1120 nM; in test [2] it was 1450 nM.
Take `Cc1cc(-c2ccc(F)cc2CO[C@H]2CCNC2)ccc1F` [Example D-94, (S)-3-(4,4′-Difluoro-3′-methyl-biphenyl-2-ylmethoxy)-pyrrolidine]: the Ki in test [1] was 102 nM; in test [2], 88.4 nM.

The values above are taken from patent US20090215857A1 (Pfizer Products Inc., priority 2005, published 2009).
